Test results: patent publication US10463670B2, “Use of non-peptide NK1 antagonists in a predetermined dose for the treatment of cancer” (SERVICIO ANDALUZ DE SALUD, priority 2013, dated 2019)
Entries after “also recorded” stand apart in the source; their conditions may differ.

Assays:
[1] = test system: Human fibrosarcoma HT-1080; assay: MTS cell proliferation, nanomolar antagonist, HT-1080; format: cell-based; details: Aprepitant 1, 5 and 7 nM, vs cells grown in the absence of antagonist, time dependant
Experimental: (§1) Cell cultures of various commercial tumour cell lines stated in table 13 were used. [table] […] The number of cells was quantified using a Coulter counter. […] The culture plates were grown in the presence of increasing concentrations of non-peptide NK1 receptor antagonists. To obtain the staining in the proliferation assays, 20 μl of MTS were added to each one of the wells of the cell culture plates 90 minutes before reading the samples in a multiscan spectrophotometer (TECAN Spectra classic, Barcelona, Spain) at 492 nm (assay wavelength) and 690 nm (reference wavelength). The different doses were tested in duplicate and each experiment was performed in triplicate. The antagonist Aprepitant was used at the following concentrations: 1 nanomolar -nM-, 5 nanomolar -nM- and 7 nanomolar -nM-. […] As proliferation control, the cells were grown in the absence of said antagonist. This is expressed in FIGS. 1 to 10.

brain tumours = details: Aprepitant 3 mg per kilogram of weight and day; mice; Lewis et al. 2013; cited from earlier work
[2] = test system: Human B cell lymphoma BC-1; assay: MTS cell proliferation, nanomolar antagonist, BC-1; format: cell-based; details: Aprepitant 1, 5 and 7 nM, vs cells grown in the absence of antagonist, time dependant
Experimental: as §1

[3] = test system: Human adenocolon cancer SW-403; assay: MTS cell proliferation, nanomolar antagonist, SW-403; format: cell-based; details: Aprepitant 1, 5 and 7 nM, vs cells grown in the absence of antagonist, time dependant
Experimental: as §1

[4] = test system: human lung cancer, reference HCC-44; assay: Lung cancer HCC-44 tumours implanted s.c. in nude mice, Aprepitant alone; format: in vivo
Experimental: (§2) Immunocompromised female mice, 5-6 weeks of age were used, nu/nu Balb/c nude mice, provided by Harlan Iberica Barcelona (Spain). They were kept at 24° C. and in sterile conditions with food and water “ad libitum”. They were injected with 2×10^7 tumour cells, corresponding to cancer (human lung cancer, reference HCC-44 supplied by DSMZ) in 200 μl of PBS subcutaneous route. The tumour size was measured and the mice were evaluated for their state of health and weight daily. The mice were randomized in nine groups when the tumours reached a volume of 75 mm^3. One of the groups was treated with 200 μl of placebo (control group) and the eight remaining groups with doses of 10 (group 1), 20 (group 2), 30 (group 3), 40 (group 4), 50 (group 5), 60 (group 6), 70 (group 7) and 80 (group 8) mg per kilogram of weight and day of the NK1 receptor antagonist Aprepitant. 3 animals were treated per group, during 28 days. All the mice were sacrificed at the end of the experiment.

Human glioma GAMG = assay: MTS cell proliferation, nanomolar antagonist, GAMG; format: cell-based; details: Aprepitant 1, 5 and 7 nM, vs cells grown in the absence of antagonist, time dependant
Experimental: as §1

[5] = test system: human lymphoma; reference BC-1; assay: Lymphoma BC-1 tumours implanted s.c. in nude mice, Aprepitant alone; format: in vivo
Experimental: as §2
Immunocompromised female mice, 5-6 weeks of age were used, in the same conditions as explained in example 1. They were injected with 2×10^7 tumour cells, corresponding to a haematological cell line tumour (human lymphoma; reference BC-1; supplied by DSMZ) in 200 μl of PBS by subcutaneous route. The tumour size was measured and the mice were evaluated for their state of health and weight daily. The mice were randomized in nine groups when the tumours reached a volume of 75 mm^3. One of the groups was treated with 200 μl of placebo (control group) and the eight remaining groups with doses of 10 (group 1), 20 (group 2), 30 (group 3), 40 (group 4), 50 (group 5), 60 (group 6), 70 (group 7) and 80 (group 8) mg per kilogram of weight and day of the NK1 receptor antagonist Aprepitant. 3 animals were treated per group, during 28 days. All the mice were sacrificed at the end of the experiment.

[6] = Aprepitant 10 mg/kg/day, 7 days
[7] = Aprepitant 10 mg/kg/day, 14 days
[8] = Aprepitant 10 mg/kg/day, 21 days
[9] = Aprepitant 10 mg/kg/day, 28 days
[10] = Aprepitant 20 mg/kg/day, 7 days
[11] = Aprepitant 20 mg/kg/day, 14 days
[12] = Aprepitant 20 mg/kg/day, 21 days
[13] = Aprepitant 20 mg/kg/day, 28 days
[14] = Aprepitant 30 mg/kg/day, 7 days
[15] = Aprepitant 30 mg/kg/day, 14 days
[16] = Aprepitant 30 mg/kg/day, 21 days
[17] = Aprepitant 30 mg/kg/day, 28 days
[18] = Aprepitant 40 mg/kg/day, 7 days
[19] = Aprepitant 40 mg/kg/day, 14 days
[20] = Aprepitant 40 mg/kg/day, 21 days
[21] = Aprepitant 40 mg/kg/day, 28 days
[22] = Aprepitant 50 mg/kg/day, 7 days
[23] = Aprepitant 50 mg/kg/day, 14 days
[24] = Aprepitant 50 mg/kg/day, 21 days
[25] = Aprepitant 50 mg/kg/day, 28 days
[26] = Aprepitant 60 mg/kg/day, 7 days
[27] = Aprepitant 60 mg/kg/day, 14 days
[28] = Aprepitant 60 mg/kg/day, 21 days
[29] = Aprepitant 60 mg/kg/day, 28 days
[30] = Aprepitant 70 mg/kg/day, 7 days
[31] = Aprepitant 70 mg/kg/day, 14 days
[32] = Aprepitant 70 mg/kg/day, 21 days
[33] = Aprepitant 70 mg/kg/day, 28 days
[34] = Aprepitant 80 mg/kg/day, 7 days
[35] = Aprepitant 80 mg/kg/day, 14 days
[36] = Aprepitant 80 mg/kg/day, 21 days
[37] = Aprepitant 80 mg/kg/day, 28 days

Which results are given for `C[C@@H](O[C@H]1OCCN(Cc2n[nH]c(=O)[nH]2)[C@H]1c1ccc(F)cc1)c1cc(C(F)(F)F)cc(C(F)(F)F)c1` [Aprepitant]?
Proliferation of tumour cells (MTS) [1]: increase was observed of proliferation; Reduction in brain tumour size (brain tumours): does not cause a reduction in brain tumour sizes; also recorded: does not produce reduction in the size of brain tumours; Proliferation of tumour cells (MTS) [2]: increase was observed of proliferation; Proliferation of tumour cells (MTS) [3]: increase was observed of proliferation; Tumour size (mean volume of the tumour) [4, 6]: 210 ± 2 cubic millimeters; Tumour size (mean volume of the tumour) [4, 7]: 190 ± 4 cubic millimeters; Tumour size (mean volume of the tumour) [4, 8]: 165 ± 6 cubic millimeters; Tumour size (mean volume of the tumour) [4, 9]: 135 ± 3 cubic millimeters; Tumour size (mean volume of the tumour) [4, 10]: 205 ± 8 cubic millimeters; Tumour size (mean volume of the tumour) [4, 11]: 170 ± 3 cubic millimeters; Tumour size (mean volume of the tumour) [4, 12]: 145 ± 4 cubic millimeters; Tumour size (mean volume of the tumour) [4, 13]: 110 ± 4 cubic millimeters; Tumour size (mean volume of the tumour) [4, 14]: 185 ± 4 cubic millimeters; Tumour size (mean volume of the tumour) [4, 15]: 150 ± 6 cubic millimeters; Tumour size (mean volume of the tumour) [4, 16]: 135 ± 5 cubic millimeters; Tumour size (mean volume of the tumour) [4, 17]: 105 ± 2 cubic millimeters; Tumour size (mean volume of the tumour) [4, 18]: 155 ± 5 cubic millimeters; Tumour size (mean volume of the tumour) [4, 19]: 130 ± 4 cubic millimeters; Tumour size (mean volume of the tumour) [4, 20]: 120 ± 4 cubic millimeters; Tumour size (mean volume of the tumour) [4, 21]: 95 ± 4 cubic millimeters; Tumour size (mean volume of the tumour) [4, 22]: 130 ± 4 cubic millimeters; Tumour size (mean volume of the tumour) [4, 23]: 115 ± 7 cubic millimeters; Tumour size (mean volume of the tumour) [4, 24]: 105 ± 6 cubic millimeters; Tumour size (mean volume of the tumour) [4, 25]: 85 ± 6 cubic millimeters; Tumour size (mean volume of the tumour) [4, 26]: 110 ± 3 cubic millimeters; Tumour size (mean volume of the tumour) [4, 27]: 95 ± 8 cubic millimeters; Tumour size (mean volume of the tumour) [4, 28]: 80 ± 7 cubic millimeters; Tumour size (mean volume of the tumour) [4, 29]: 65 ± 4 cubic millimeters; Tumour size (mean volume of the tumour) [4, 30]: 95 ± 4 cubic millimeters; Tumour size (mean volume of the tumour) [4, 31]: 80 ± 6 cubic millimeters; Tumour size (mean volume of the tumour) [4, 32]: 65 ± 8 cubic millimeters; Tumour size (mean volume of the tumour) [4, 33]: 40 ± 7 cubic millimeters; Tumour size (mean volume of the tumour) [4, 34]: 70 ± 4 cubic millimeters; Tumour size (mean volume of the tumour) [4, 35]: 55 ± 7 cubic millimeters; Tumour size (mean volume of the tumour) [4, 36]: 40 ± 6 cubic millimeters; Tumour size (mean volume of the tumour) [4, 37]: 25 ± 5 cubic millimeters; Proliferation of tumour cells (MTS) (Human glioma GAMG): increase was observed of proliferation; Tumour size (mean volume of the tumour) [5, 6]: 210 ± 3 cubic millimeters; Tumour size (mean volume of the tumour) [5, 7]: 195 ± 6 cubic millimeters; Tumour size (mean volume of the tumour) [5, 8]: 175 ± 7 cubic millimeters; Tumour size (mean volume of the tumour) [5, 9]: 170 ± 6 cubic millimeters; Tumour size (mean volume of the tumour) [5, 10]: 195 ± 6 cubic millimeters; Tumour size (mean volume of the tumour) [5, 11]: 175 ± 7 cubic millimeters; Tumour size (mean volume of the tumour) [5, 12]: 160 ± 6 cubic millimeters; Tumour size (mean volume of the tumour) [5, 13]: 150 ± 7 cubic millimeters; Tumour size (mean volume of the tumour) [5, 14]: 180 ± 7 cubic millimeters; Tumour size (mean volume of the tumour) [5, 15]: 155 ± 4 cubic millimeters; Tumour size (mean volume of the tumour) [5, 16]: 145 ± 8 cubic millimeters; Tumour size (mean volume of the tumour) [5, 17]: 140 ± 4 cubic millimeters; Tumour size (mean volume of the tumour) [5, 18]: 165 ± 8 cubic millimeters; Tumour size (mean volume of the tumour) [5, 19]: 165 ± 6 cubic millimeters; Tumour size (mean volume of the tumour) [5, 20]: 130 ± 5 cubic millimeters; Tumour size (mean volume of the tumour) [5, 21]: 110 ± 6 cubic millimeters; Tumour size (mean volume of the tumour) [5, 22]: 150 ± 5 cubic millimeters; Tumour size (mean volume of the tumour) [5, 23]: 145 ± 7 cubic millimeters; Tumour size (mean volume of the tumour) [5, 24]: 120 ± 6 cubic millimeters; Tumour size (mean volume of the tumour) [5, 25]: 100 ± 7 cubic millimeters; Tumour size (mean volume of the tumour) [5, 26]: 130 ± 6 cubic millimeters; Tumour size (mean volume of the tumour) [5, 27]: 130 ± 8 cubic millimeters; Tumour size (mean volume of the tumour) [5, 28]: 100 ± 7 cubic millimeters; Tumour size (mean volume of the tumour) [5, 29]: 85 ± 4 cubic millimeters; Tumour size (mean volume of the tumour) [5, 30]: 110 ± 4 cubic millimeters; Tumour size (mean volume of the tumour) [5, 31]: 105 ± 4 cubic millimeters; Tumour size (mean volume of the tumour) [5, 32]: 80 ± 5 cubic millimeters; Tumour size (mean volume of the tumour) [5, 33]: 80 ± 7 cubic millimeters; Tumour size (mean volume of the tumour) [5, 34]: 95 ± 6 cubic millimeters; Tumour size (mean volume of the tumour) [5, 35]: 85 ± 6 cubic millimeters; Tumour size (mean volume of the tumour) [5, 36]: 65 ± 3 cubic millimeters; Tumour size (mean volume of the tumour) [5, 37]: 65 ± 9 cubic millimeters
